Assay results from PubChem BioAssay AID1919016 (Molecular Pharmacology Branch, DTP, NCI, 2023).

System: NCI-H196 complex spheroid growth, percent test/control
Experiment: Anticancer human tumor NCI-H196 cell line growth inhibition [AhR];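 further: seven days of drug exposure starting three days after plating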;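 on viability, T/C: 100% = DMSO vehicle control wells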
Conditions: for viability, T/C: stronger effect = lower value
Outline: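 Spheroids combined tumor cells with HUVEC endothelial cells and human MSCs as stroma. AhR antagonists were paired with standard or investigational drugs, each dosed in half-log steps down from near clinical Cmax, or from 10 microM where Cmax was unknown.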

[1] = curve of first compound, second compound 0.1 µM
[2] = curve of first compound, second compound 0.316 µM
[3] = curve of first compound, second compound 1 µM
[4] = curve of first compound, second compound 3.16 µM
[5] = curve of first compound, second compound 10 µM
[6] = second compound 0.1 µM, first compound 0.0316 µM
[7] = second compound 0.1 µM, first compound 0.1 µM
[8] = second compound 0.1 µM, first compound 0.316 µM
[9] = second compound 0.1 µM, first compound 1 µM
[10] = second compound 0.1 µM, first compound 3.16 µM
[11] = second compound 0.1 µM, first compound 10 µM
[12] = second compound 0.316 µM, first compound 0.0316 µM
[13] = second compound 0.316 µM, first compound 0.1 µM
[14] = second compound 0.316 µM, first compound 0.316 µM
[15] = second compound 0.316 µM, first compound 1 µM
[16] = second compound 0.316 µM, first compound 3.16 µM
[17] = second compound 0.316 µM, first compound 10 µM
[18] = second compound 1 µM, first compound 0.0316 µM
[19] = second compound 1 µM, first compound 0.1 µM
[20] = second compound 1 µM, first compound 0.316 µM
[21] = second compound 1 µM, first compound 1 µM
[22] = second compound 1 µM, first compound 3.16 µM
[23] = second compound 1 µM, first compound 10 µM
[24] = second compound 3.16 µM, first compound 0.0316 µM
[25] = second compound 3.16 µM, first compound 0.1 µM
[26] = second compound 3.16 µM, first compound 0.316 µM
[27] = second compound 3.16 µM, first compound 1 µM
[28] = second compound 3.16 µM, first compound 3.16 µM
[29] = second compound 3.16 µM, first compound 10 µM
[30] = second compound 10 µM, first compound 0.0316 µM
[31] = second compound 10 µM, first compound 0.1 µM
[32] = second compound 10 µM, first compound 0.316 µM
[33] = second compound 10 µM, first compound 1 µM
[34] = second compound 10 µM, first compound 3.16 µM
[35] = second compound 10 µM, first compound 10 µM

Which IC50 [1] does the source give for `CC1(C)CCC(CN2CCN(c3ccc(C(=O)NS(=O)(=O)c4ccc(NCC5CCOCC5)c([N+](=O)[O-])c4)c(Oc4cnc5[nH]ccc5c4)c3)CC2)=C(c2ccc(Cl)cc2)C1` + Cc1cncc(-c2nc(NCCc3c[nH]c4ccccc34)c3ncn(C(C)C)c3n2)c1 here?
The IC50 was greater than 10 µM.

And the IC50 [2]?
Its IC50 is greater than 10 µM.

And the IC50 [3]?
Its IC50 is greater than 10 µM.

What about the IC50 [4] of the same compound?
Its IC50 is greater than 10 µM.

And the IC50 [5]?
Its IC50 is greater than 10 µM.

And the viability, T/C [6]?
Its viability, T/C is 98.3%.

What about the viability, T/C [7] of the same compound?
Its viability, T/C is 97.8%.

What about the viability, T/C [8] of the same compound?
The viability, T/C was 89.4%.

And the viability, T/C [9]?
The viability, T/C was 98.6%.

And the viability, T/C [10]?
The viability, T/C was 96.5%.

What about the viability, T/C [11] of the same compound?
The viability, T/C was 107%.

And the viability, T/C [12]?
Its viability, T/C is 106%.

And the viability, T/C [13]?
Its viability, T/C is 96%.

And the viability, T/C [14]?
The viability, T/C was 95.7%.

And the viability, T/C [15]?
Its viability, T/C is 93.1%.

And the viability, T/C [16]?
Its viability, T/C is 105%.

And the viability, T/C [17]?
Its viability, T/C is 108%.

And the viability, T/C [18]?
Its viability, T/C is 91.7%.

What about the viability, T/C [19] of the same compound?
Its viability, T/C is 101%.

What about the viability, T/C [20] of the same compound?
Its viability, T/C is 108%.

And the viability, T/C [21]?
Its viability, T/C is 97.1%.

And the viability, T/C [22]?
Its viability, T/C is 103%.

What about the viability, T/C [23] of the same compound?
Its viability, T/C is 105%.

And the viability, T/C [24]?
The viability, T/C was 115%.

What about the viability, T/C [25] of the same compound?
The viability, T/C was 105%.

What about the viability, T/C [26] of the same compound?
Its viability, T/C is 105%.

And the viability, T/C [27]?
The viability, T/C was 108%.

What about the viability, T/C [28] of the same compound?
The viability, T/C was 95%.

What about the viability, T/C [29] of the same compound?
Its viability, T/C is 104%.

What about the viability, T/C [30] of the same compound?
The viability, T/C was 87.8%.

And the viability, T/C [31]?
Its viability, T/C is 97.9%.

What about the viability, T/C [32] of the same compound?
The viability, T/C was 107%.

What about the viability, T/C [33] of the same compound?
The viability, T/C was 118%.

What about the viability, T/C [34] of the same compound?
The viability, T/C was 105%.

What about the viability, T/C [35] of the same compound?
The viability, T/C was 101%.

Which results are given for `CC1COCCN1c1cc(C2(S(C)(=N)=O)CC2)nc(-c2ccnc3[nH]ccc23)n1` (stereo not given) + Cc1ccccc1N=Nc1ccc(NC(=O)c2ccnn2C)c(C)c1?
IC50 [1]: > 10 µM; IC50 [2]: > 10 µM; IC50 [3]: > 10 µM; IC50 [4]: > 10 µM; IC50 [5]: > 10 µM; viability, T/C [6]: 98.5%; viability, T/C [7]: 101%; viability, T/C [8]: 98.8%; viability, T/C [9]: 101%; viability, T/C [10]: 81.5%; viability, T/C [11]: 69.7%; viability, T/C [12]: 99.3%; viability, T/C [13]: 102%; viability, T/C [14]: 99.2%; viability, T/C [15]: 92.5%; viability, T/C [16]: 80.5%; viability, T/C [17]: 72.6%; viability, T/C [18]: 96.3%; viability, T/C [19]: 104%; viability, T/C [20]: 101%; viability, T/C [21]: 94%; viability, T/C [22]: 87.7%; viability, T/C [23]: 70%; viability, T/C [24]: 96.2%; viability, T/C [25]: 99.1%; viability, T/C [26]: 97.4%; viability, T/C [27]: 88.6%; viability, T/C [28]: 81.8%; viability, T/C [29]: 74%; viability, T/C [30]: 85.7%; viability, T/C [31]: 93.1%; viability, T/C [32]: 101%; viability, T/C [33]: 89.7%; viability, T/C [34]: 78.3%; viability, T/C [35]: 76.6%

With `O=C(C=Cn1cnc(-c2cc(C(F)(F)F)cc(C(F)(F)F)c2)n1)NNc1cnccn1` + Cc1ccccc1N=Nc1ccc(NC(=O)c2ccnn2C)c(C)c1 as the compound, how does the IC50 [1] read?
Its IC50 is 0.0334 µM.

What about the IC50 [2] of the same compound?
The IC50 was 0.0366 µM.

And the IC50 [3]?
Its IC50 is 0.0348 µM.

And the IC50 [4]?
The IC50 was 0.0354 µM.

And the IC50 [5]?
The IC50 was 0.0413 µM.

What about the viability, T/C (second compound 0.1 µM, first compound 0.00949 µM) of the same compound?
Its viability, T/C is 71.3%.

What about the viability, T/C (second compound 0.1 µM, first compound 0.03 µM) of the same compound?
Its viability, T/C is 54.5%.

And the viability, T/C (second compound 0.1 µM, first compound 0.0949 µM)?
The viability, T/C was 6.66%.

What about the viability, T/C (second compound 0.1 µM, first compound 0.3 µM) of the same compound?
The viability, T/C was 6.81%.

And the viability, T/C (second compound 0.1 µM, first compound 0.949 µM)?
The viability, T/C was 5.42%.

What about the viability, T/C (second compound 0.1 µM, first compound 3 µM) of the same compound?
The viability, T/C was 7.76%.

And the viability, T/C (second compound 0.316 µM, first compound 0.00949 µM)?
The viability, T/C was 72.7%.

What about the viability, T/C (second compound 0.316 µM, first compound 0.03 µM) of the same compound?
The viability, T/C was 58.6%.

What about the viability, T/C (second compound 0.316 µM, first compound 0.0949 µM) of the same compound?
Its viability, T/C is 8.61%.

And the viability, T/C (second compound 0.316 µM, first compound 0.3 µM)?
Its viability, T/C is 5.66%.

And the viability, T/C (second compound 0.316 µM, first compound 0.949 µM)?
Its viability, T/C is 6.01%.

What about the viability, T/C (second compound 0.316 µM, first compound 3 µM) of the same compound?
The viability, T/C was 6.07%.

And the viability, T/C (second compound 1 µM, first compound 0.00949 µM)?
Its viability, T/C is 79.8%.

What about the viability, T/C (second compound 1 µM, first compound 0.03 µM) of the same compound?
Its viability, T/C is 56%.

What about the viability, T/C (second compound 1 µM, first compound 0.0949 µM) of the same compound?
The viability, T/C was 9.47%.

And the viability, T/C (second compound 1 µM, first compound 0.3 µM)?
Its viability, T/C is 5.55%.

And the viability, T/C (second compound 1 µM, first compound 0.949 µM)?
The viability, T/C was 8.58%.

What about the viability, T/C (second compound 1 µM, first compound 3 µM) of the same compound?
Its viability, T/C is 8.52%.

And the viability, T/C (second compound 3.16 µM, first compound 0.00949 µM)?
The viability, T/C was 68.4%.

And the viability, T/C (second compound 3.16 µM, first compound 0.03 µM)?
Its viability, T/C is 56.8%.

And the viability, T/C (second compound 3.16 µM, first compound 0.0949 µM)?
The viability, T/C was 9.86%.

What about the viability, T/C (second compound 3.16 µM, first compound 0.3 µM) of the same compound?
Its viability, T/C is 4.79%.

And the viability, T/C (second compound 3.16 µM, first compound 0.949 µM)?
The viability, T/C was 7.89%.

What about the viability, T/C (second compound 3.16 µM, first compound 3 µM) of the same compound?
The viability, T/C was 8.09%.

What about the viability, T/C (second compound 10 µM, first compound 0.00949 µM) of the same compound?
The viability, T/C was 74.6%.

And the viability, T/C (second compound 10 µM, first compound 0.03 µM)?
The viability, T/C was 64%.

What about the viability, T/C (second compound 10 µM, first compound 0.0949 µM) of the same compound?
The viability, T/C was 13.8%.

And the viability, T/C (second compound 10 µM, first compound 0.3 µM)?
The viability, T/C was 10.6%.

What about the viability, T/C (second compound 10 µM, first compound 0.949 µM) of the same compound?
The viability, T/C was 8.84%.

And the viability, T/C (second compound 10 µM, first compound 3 µM)?
The viability, T/C was 12.8%.

For `Cc1cncc(-c2nc(NCCc3c[nH]c4ccccc34)c3ncn(C(C)C)c3n2)c1`, which viability, T/C (compound 0.1 µM) is on record?
Its viability, T/C is 96.5% [middle of 20 runs].

What about the viability, T/C (compound 0.316 µM) of the same compound?
Its viability, T/C is 99% [middle of 20 runs].

And the viability, T/C (compound 1 µM)?
Its viability, T/C is 101% [middle of 20 runs].

And the viability, T/C (compound 3.16 µM)?
Its viability, T/C is 106% [middle of 20 runs].

What about the IC50 (compound alone, run of 08/16/2022) of the same compound?
The IC50 was greater than 10 µM.

What does the source list for `CC1COCCN1c1cc(C2(S(C)(=N)=O)CC2)nc(-c2ccnc3[nH]ccc23)n1` (stereo not given) + CC(CO)NC(=O)c1cc(-c2ccc(Cl)cc2)nn(-c2cnn(C)c2)c1=O?
IC50 [1]: > 10 µM; IC50 [2]: > 10 µM; IC50 [3]: > 10 µM; IC50 [4]: > 10 µM; IC50 [5]: > 10 µM; viability, T/C [6]: 106%; viability, T/C [7]: 115%; viability, T/C [8]: 98.6%; viability, T/C [9]: 117%; viability, T/C [10]: 101%; viability, T/C [11]: 87%; viability, T/C [12]: 103%; viability, T/C [13]: 110%; viability, T/C [14]: 114%; viability, T/C [15]: 104%; viability, T/C [16]: 89.8%; viability, T/C [17]: 91.1%; viability, T/C [18]: 113%; viability, T/C [19]: 114%; viability, T/C [20]: 114%; viability, T/C [21]: 109%; viability, T/C [22]: 100%; viability, T/C [23]: 85.8%; viability, T/C [24]: 119%; viability, T/C [25]: 126%; viability, T/C [26]: 106%; viability, T/C [27]: 111%; viability, T/C [28]: 99.3%; viability, T/C [29]: 83.8%; viability, T/C [30]: 113%; viability, T/C [31]: 115%; viability, T/C [32]: 109%; viability, T/C [33]: 120%; viability, T/C [34]: 103%; viability, T/C [35]: 81.8%
